Among the data in US11530213B2, “Naphthyridinone derivatives and their use in the treatment of arrhythmia” (NOVARTIS AG, priority 2016, dated 2022) are IC50 values, retold here.

The structures appear in SMILES notation.

Chain of GIRK1/4 (P48549 whole entry): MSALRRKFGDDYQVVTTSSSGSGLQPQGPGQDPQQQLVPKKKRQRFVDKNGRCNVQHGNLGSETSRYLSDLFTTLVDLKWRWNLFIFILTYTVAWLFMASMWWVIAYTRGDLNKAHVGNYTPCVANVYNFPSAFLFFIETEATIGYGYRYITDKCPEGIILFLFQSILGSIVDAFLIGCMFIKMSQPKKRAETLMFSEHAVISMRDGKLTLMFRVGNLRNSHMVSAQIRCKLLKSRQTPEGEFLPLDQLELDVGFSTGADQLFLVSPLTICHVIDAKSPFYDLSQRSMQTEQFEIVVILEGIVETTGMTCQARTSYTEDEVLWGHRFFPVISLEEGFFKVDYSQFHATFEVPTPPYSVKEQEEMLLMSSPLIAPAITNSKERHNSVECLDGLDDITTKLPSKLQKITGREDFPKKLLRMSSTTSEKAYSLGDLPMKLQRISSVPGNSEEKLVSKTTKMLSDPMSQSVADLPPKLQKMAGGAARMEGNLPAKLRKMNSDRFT
Chain of GIRK1/4 (P48544 whole entry): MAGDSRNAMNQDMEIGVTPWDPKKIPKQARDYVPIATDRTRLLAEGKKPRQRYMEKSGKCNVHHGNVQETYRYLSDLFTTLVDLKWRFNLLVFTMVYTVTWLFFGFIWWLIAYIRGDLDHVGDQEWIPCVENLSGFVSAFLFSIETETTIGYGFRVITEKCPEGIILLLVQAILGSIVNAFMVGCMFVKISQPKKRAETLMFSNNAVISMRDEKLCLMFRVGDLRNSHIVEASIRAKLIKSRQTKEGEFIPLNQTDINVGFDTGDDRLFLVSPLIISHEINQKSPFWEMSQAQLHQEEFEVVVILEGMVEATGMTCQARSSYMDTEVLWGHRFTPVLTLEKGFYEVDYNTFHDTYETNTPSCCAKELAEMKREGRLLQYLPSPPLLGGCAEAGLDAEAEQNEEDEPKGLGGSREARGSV

For this experiment, the target named is GIRK1/4 (Homo sapiens (Human), UniProt P48544+P48549). Put plainly: GIRK1/4 inhibition, Quattro (IonWorks) population patch clamp, inward potassium current in GIRK 1/4 HEK293 stable cells (test assay No. 1). The format is cell-based. The following applies: percentage of current inhibition normalized to DMSO-only control. As for the experimental part:
The activity of a compound according to the present invention can be assessed by the following in vitro method. • 1. Buffers: • a. External buffer: 10 mM NaCl, 50 mM Na Gluconate, 80 mM K Gluconate, 1.8 mM CaCl2, 1 mM MgCl2, 10 mM HEPES, 10 mM Glucose, pH 7.4; osmolality […]. • b. Internal buffer: 30 mM KCl, 100 mM K Gluconate, 1 mM MgCl2, 10 mM HEPES, 1 mM EGTA, 10 mM NaCl, pH 7.2; osmolality […]. • 2. Compounds: • a. Prepare seven-fold compound dilution series (10 mM to 20 uM) in 100% DMSO, in 384-well polypropylene plates. • b. Propafenone (Sigma Aldrich, catalog number P4670) is used as a positive control and DMSO for neutral control • c. Resuspend 1 ul of compounds in DMSO into 65.7 ul external buffer in 384-well polypropylene plate and load into Plate 1 section of Molecular Devices Quattro • 3. Quattro setup: • a. Load 384-well Population Patch Plate (Molecular Devices #9000-0902) into Quattro • b. Fill Quattro F-soak trough with 20% DMSO and 50% EtOH • c. Fill Quattro buffer trough with external buffer • d. Attach internal buffer flask to Quattro internal buffer tubing • e. Attach PBS (Phosphate Buffered Saline, minus Ca^++ and Mg^++, pH7.4) bottle to F-head & E-head wash on Quattro • 4. Antibiotic: • a. Resuspend 5.6 mg amphotericin B (Sigma Aldrich, catalog number A2411) in 175 ul DMSO • b. Add the resulting solution to 50 ml internal buffer, mix and attach to antibiotic tubing port on Quattro • 5. Cells: • a. Use GIRK 1/4 HEK293 stable cells (obtained from ChanTest, 14656 Neo Parkway, Cleveland, Ohio 44128) grown to […] confluency in the following cell culture medium: DMEM containing 10% (v/v) Fetal Bovine Serum, Penicillin/Streptomycin (at “1×” concentration from a 100× stock), 0.5 mg/ml G418 and 0.1 mg/ml Zeocin. • b. Wash cells with PBS (minus Ca^++ and Mg^++), Detach cells using Detachin (Genlantis, 11011 Torreyana, San Diego, Calif. 92121), and resuspend in external buffer (5 ml final volume at 2.0-2.1×10^6 cells/ml) • c. Load into cell trough of Quattro • 6. Assay Protocol: • Quattro is controlled using IonWorks v2 software to perform the following steps: • a. Add 3.5 ul cells plus 3.5 ul external buffer to wells of Quattro Patch Plate • b. Circulate amphotericin B and internal buffer onto cells • c. Apply the following voltage protocol: Pulse 1: 15 mV for 300 milliseconds (ms), followed by Pulse 2: −120 mV for 400 ms, then Pulse 3: −15 mV for 400 ms, and finally Pulse 4: −120 mV to 40 mV over 500 ms (this is a voltage ramp). • d. Measure magnitude of inward potassium current at time point between 1200-1220 ms from start of Pulse 1 (i.e. during the voltage ramp phase). • e. Add 3.5 ul of diluted compounds (or DMSO) to wells and repeat steps c-d (final compound concentrations are 50 uM to 0.1 uM, for potent compounds 0.5 uM to 0.01 uM and each concentration is tested in quadruplicate—i.e. in 4 separate wells). • f. The difference between current magnitude pre vs. post-compound gives a measure of GIRK1/4 inhibition. • 7. Data analysis:
IC50 values are calculated by plotting the percentage of current inhibition (normalized to the DMSO-only control) as a function of compound concentration using standard data analysis software.
A general note: Patch clamp records ionic current or voltage across a cell membrane.
With `Cc1cc(=O)c2c(OCCOCCOCCOCCOCCOCCO)ncc(Cl)c2n1-c1c(Cl)cccc1Cl` [Example 19, 8-chloro-1-(2,6-dichlorophenyl)-5-((17-hydroxy-3,6,9,12,15-pentaoxaheptadecyl)oxy)-2-methyl-1,6-naphthyridin-4(1H)-one], the midpoint of inhibition, the IC50, lay at 98 nM. Then `Cc1cc(=O)c2c(OCC(O)COCC(O)CO)ncc(Cl)c2n1-c1c(Cl)cccc1Cl` (stereo not shown) [Example 20, 8-chloro-1-(2,6-dichlorophenyl)-5-(3-(2,3-dihydroxypropoxy)-2-hydroxypropoxy)-2-methyl-1,6-naphthyridin-4(1H)-one], with 173 nM; and `Cc1cc(=O)c2c(OCCOCCOCCOCCO)ncc(Cl)c2n1-c1c(Cl)cccc1C#N` [Example 21, 3-chloro-2-(8-chloro-5-(2-(2-(2-(2-hydroxyethoxy)ethoxy)ethoxy)ethoxy)-2-methyl-4-oxo-1,6-naphthyridin-1(4H)-yl)benzonitrile], with 154 nM; and `Cc1cc(=O)c2c(NCCNS(C)(=O)=O)cncc2n1-c1c(Cl)cc(C#N)cc1Cl` [Example 22, N-(2-((1-(2,6-dichloro-4-cyanophenyl)-2-methyl-4-oxo-1,4-dihydro-1,7-naphthyridin-5-yl)amino)ethyl)methanesulfonamide], with 148 nM. In the case of `Cc1cc(=O)c2c(OCCOCCOCCOCCO)ncc(Cl)c2n1-c1c(Cl)cc(F)cc1C#N` [Example 23, 3-chloro-2-(8-chloro-5-(2-(2-(2-(2-hydroxyethoxy)ethoxy)ethoxy)ethoxy)-2-methyl-4-oxo-1,6-naphthyridin-1(4H)-yl)-5-fluorobenzonitrile], 344 nM corresponded to half-maximal inhibition (IC50).

Regarding `Cc1cc(=O)c2c(OCCOCCOCCOCCOCCOCCO)ncc(Cl)c2n1-c1c(Cl)cc(F)cc1Cl` [Example 24, 8-chloro-1-(2,6-dichloro-4-fluorophenyl)-5-((17-hydroxy-3,6,9,12,15-pentaoxaheptadecyl)oxy)-2-methyl-1,6-naphthyridin-4(1H)-one], 253 nM corresponded to half-maximal inhibition (IC50).

For the compound `Cc1cc(=O)c2c(N3CCN(CCO)CC3)ncc(Cl)c2n1-c1c(Cl)cc(C#N)cc1Cl` [Example 25, 3,5-dichloro-4-(8-chloro-5-(4-(2-hydroxyethyl)piperazin-1-yl)-2-methyl-4-oxo-1,6-naphthyridin-1(4H)-yl)benzonitrile], the 50% inhibitory concentration (IC50) – broadly, the concentration that gives 50% inhibition – was determined as 146 nM. In the case of `Cc1cc(=O)c2c(OCC(O)C(O)CO)ncc(Cl)c2n1-c1c(Cl)cccc1Cl` (stereo not shown) [Example 26, 8-chloro-1-(2,6-dichlorophenyl)-2-methyl-5-(2,3,4-trihydroxybutoxy)-1,6-naphthyridin-4(1H)-one], the IC50 was determined as 31 nM.

Turning to `Cc1cc(=O)c2c(NCCO)cncc2n1-c1c(Cl)cc(C#N)cc1Cl` [Example 27, 3,5-dichloro-4-(5-((2-hydroxyethyl)amino)-2-methyl-4-oxo-1,7-naphthyridin-1(4H)-yl)benzonitrile], inhibition was half-maximal at 150 nM (IC50). Against the preceding compound, the IC50 is about 4.8-fold higher. Then `Cc1cc(=O)c2c(N3CC(O)C3)cncc2n1-c1c(Cl)cc(C#N)cc1Cl` [Example 29, 3,5-dichloro-4-(5-(3-hydroxyazetidin-1-yl)-2-methyl-4-oxo-1,7-naphthyridin-1(4H)-yl)benzonitrile], with 505 nM; and `Cc1cc(=O)c2c(OCCOCCOCCOCCO)ncc(Cl)c2n1-c1c(Cl)cccc1Cl` [Example 30, 8-chloro-1-(2,6-dichlorophenyl)-5-(2-(2-(2-(2-hydroxyethoxy)ethoxy)ethoxy)ethoxy)-2-methyl-1,6-naphthyridin-4(1H)-one], with 25 nM. In turn, `Cc1cc(=O)c2c(OCCOCCOCCOCCO)ncc(Cl)c2n1-c1c(Cl)cc(F)cc1Cl` [Example 32, 8-chloro-1-(2,6-dichloro-4-fluorophenyl)-5-(2-(2-(2-(2-hydroxyethoxy)ethoxy)ethoxy)ethoxy)-2-methyl-1,6-naphthyridin-4(1H)-one] registered a half-inhibitory concentration (IC50) of 33 nM. Take `Cc1cc(=O)c2c(N3C[C@@H](O)[C@@H](O)C3)ncc(Cl)c2n1-c1c(Cl)cccc1Cl` [Example 33, 8-chloro-1-(2,6-dichlorophenyl)-5-((3R,4S)-3,4-dihydroxypyrrolidin-1-yl)-2-methyl-1,6-naphthyridin-4(1H)-one]: inhibition was half-maximal at 100 nM (IC50). Compared with the last compound, the IC50 is about 3-fold higher.
